Assays:
[1] = tested on: WSU-DLCL2 human diffuse large cell lymphoma; assay: Inhibition of tumor growth in WSU-DLCL2 non-Hodgkin's-lymphoma model with PNT-100 and vincristine (Example 7); assay type: in vivo, mice
Description: A non-Hodgkin's-lymphoma model (NHL) was used. The WSU-DLCL2 (Wayne State University diffuse large cell lymphoma) model is a very robust model of chemoresistant aggressive human diffuse large cell lymphoma. It was obtained from Dr. Ramzi Mohammad and Dr. Al-Katib and colleagues at the Karmanos Cancer Institute at Wayne State University. (See Al-Katib, A M, et al., Clin. Cancer Res. 4, 1305-1314 (1998); Mohammad, R, et al., Clin. Cancer Res. 8, 1277-1283 (2002); Mohammad, R M, et al., Mol. Cancer. Ther., 4, 13-21 (2005); Mohammad, R M, et al., Clin. Cancer Res. 6, 4950-4956, (2000).) The study was designed to administer five daily doses of 5 mg/kg PNT-100 (SEQ ID NO: 1251), and in certain cohorts, combination therapy with vincristine.

Daudi xenografts = assay: Efficacy of liposomal PNT-100 and rituximab in Daudi xenografts (Example 11); assay type: in vivo, mice; settings: doses and schedules of Table 5, FIGS. 7-9
Description: Daudi cells are a model of Burkett's lymphoma. Xenografts with Daudi cells were generated in mice as described in the previous examples. Liposomal PNT-100 was formulated as in example 9 and has similar properties and a concentration of 2.4 mg PNT-100 per ml. The mice were divided into 10 groups and treated as in Table 5.
Tumor volume was caliper measured. Studies were concluded when control animal xenografts reached 2000 mm^3. […] FIG. 8 is a Kaplan-Meyer plot, showing the percent of mice whose tumors have not yet reached 2000 mm^3 each day.

WSU-DLCL2 xenografts = assay: Efficacy of liposomal PNT-100 and rituximab in WSU-DLCL2 xenografts (Example 10); assay type: in vivo, C.B-17 SCID mice; settings: rituximab 20 mg/kg days 2 and 5; liposomal PNT-100 daily for five days; i.v.
Description: Xenografts with WSU-DLCL2 cells were generated in C.B-17 SCID mice between 4-6 weeks old as described in the previous examples. […] Human pharmaceutical grade rituximab (Biogen Idec-Genentech) was provided by Karmanos Cancer Institute. The mice were treated as in Table 4. [table] Animals were checked three times weekly for tumor growth by caliper measurements. An approximate tumor volume was calculated using the formula ½(a×b^2), where b is the smaller of two perpendicular diameters. Animals were sacrificed when individual animal tumor burden reached 2000 mm^3 or when the study was concluded 81 days post tumor trocar.

| Substance | growth of tumors in mice ([1]; 5 mg/kg PNT-100, alone or with vincristine) | weight loss in the animals ([1]; after one dose, 5 mg/kg planned daily doses) | effect on tumor volume / time to 2000 mm^3 (Daudi xenografts) | complete regression of the tumor (shrinkage below measurable size for three consecutive time points), number of tumors (WSU-DLCL2 xenografts) | complete regression through the 81 day endpoint, number of tumors (WSU-DLCL2 xenografts) |
| --- | --- | --- | --- | --- | --- |
| PNT-100: PNT-100 oligonucleotide not methylated, bcl-2 oligonucleotide, SEQ ID NO:1251 (DNA CACGCACGCGCATCCCCGCCCGTG; sugars by position and backbone not given here; liposomal formulation) | decreases the growth tumors | noticeable weight loss | little effect | – | – |
| Rituximab: human pharmaceutical grade rituximab (Biogen Idec-Genentech), antibody directed against CD20 | – | – | little effect | seven out of eight | four out of eight |

Source: US8822646B2, “Cancer therapies and pharmaceutical compositions used therein” (ProNAi Therapeutics, Inc., priority 2005, dated 2014)
